Assay results published in US20090312413A1, “Composition Comprising Tanshinone Compounds Isolated From The Extract Of Salviae Miltiorrhizae Radix For Treating Or Preventing Cognitive Dysfunction And The Use Thereof” (DIGITAL BIOTECH CO., LTD., priority 2005, published 2009).

Experiments:
[1] = tested on: HT 22 mouse neuronal cell line; assay: Inhibition test of beta amyloid toxicity (MTT); assay type: cell-based; conditions: HT22 cells, 25 μM aggregated beta amyloid, 18 hours
Description: HT 22 mouse neuronal cell line was incubated in DMEM (Dulbecco's Modified Eagle's Medium, Gibco-BRL) medium supplemented with 10% FBS (Fetal Bovine Serum, Hyclone) and 1% penicillin/streptomycin (Sigma Co.) Prior to test, HT22 cell was incubated on 96 well plates with a density of 5×10^3 cell/well and further incubated in serum free DMEM medium for 1 hour before the treatment of test sample. Various concentration of diethyl ether extract prepared in Example 1 used as a test sample was added thereto and incubated for 1 hour. Aggregated beta amyloid (US peptide) was treated thereto to the concentration of 25 μM and incubated for 18 hours to induce cell necrosis. 5 mg/ml of MTT (3-(4,5-dimethyl-2-thiazolyl)-2,5-diphenyl-2H-tetrazolium bromide) solution was added each well with 15 μl/well and the well was incubated for 4 hours. Dissolving buffer solution (10% SDS, 50% dimethyl formamide, pH 4.7) was added to each well with 100 μl/well and reacted for overnight. 18 hours after the reaction, the absorbance of solution was determined by microplate reader (SAFIRE, TECAN) at 570 nm/630 nm wavelength (Gillardon, F. et al., Brain Research, 706(1) pp 169-172, 1996).

[2] = tested on: mice directly treated with beta amyloid; assay: AD acute model, Y maze test; assay type: in vivo, mouse; conditions: 50 mg/kg oral, mice given beta amyloid intracerebro-ventricularly
Description: For passive avoidance test, male ICR mouse weighing 25 g purchased from Samtaco Co. was bred with five mice per cage and the cage was kept with following condition maintaining the temperature of 22±2° C. and the relative humidity of […] under the regularly controlled light/dark condition with an interval of 12 hours. Synthetic beta amyloid 1-42 (BACHEM) was dissolved in DMSO in order to be 250 μM solution and diluted with PBS to 10 nM and aggregated at 37° C. for four days (Passive Avoidance test) or six days (Y maze test). Aggregated beta amyloid 1-42 was administrated into the mice according to the procedure disclosed in the literature (Lausen & Belknap, J. Pharmacol. Methods, 16 pp 355-357, 1986). 50 μl of aggregated beta amyloid 1-42 was administrated into the 2.4 mm depth of bregma region with 50 μl of Hamilton micro-syringe equipped with 26-gauge needle. The behavior tests were divided into Y maze test and PA (passive avoidance) test after the beta amyloid administration. […] The entering order of mice in the pathway was observed and the entering latency time was determined when four limbs was entered within the pathway. To determine the spatial memory, the determined spontaneous alteration behavior was calculated by following empirical formula 1 and the actual alteration was assigned to one time at the time that mice was entered three pathways continuously. […]

[3] = Oral administration toxicity test; assay type: in vivo; conditions: 2000 mg/kg
[4] = tested on: mouse brain; assay: Brain staining of AD acute model (Cresyl violet, ChAT, GFAP); assay type: in vivo
Description: At the end of the experiment, the brain of animals was delivered and kept in 10% formalin solution to staining. At the end of behavior test, the mouse brain was delivered, kept in 10% formalin solution for 24 hours and transferred to 30% sucrose solution. After fixing the brain, the brain was performed to coronal section with a width of 40 μm using by cryostat. The sliced brain was performed to Cresyl violet staining to confirm the injury of brain neuronal cell, to ChAT staining to confirm the injury of cholinergic neuron and to GFAP staining to confirm the activation of astrocytes. After the tissue was placed on gelatin-coated slide to stain with Cresyl violet, the tissue was performed to dehydration using ethanol. The tissue was incubated for about 3 minutes and dipped into 0.5% Cresyl Violet solution for 30 mins. After the solution was performed to […] with ethanol, the slice was dipped into xylene for 3 minutes. The dried tissue was fixed with Canada balsam mounting medium. In the washing process between all the antibody incubation, PBST was used to washing tissues. To reduce the activity of endogenous peroxidase activity, the tissue was pretreated with 0.5% H2O2 and then treated with 5% FBS at room temperature for 1 hour to remove non-specific binding. The tissue was incubated at 4° C. for overnight using by mouse anti-GFAP (1:200) monoclonal antibody and goat-anti-ChAT (1:200) polyclonal antibody. A horse radish peroxidase-conjugated anti-mouse IgG and anti-goat IgG secondary antibody (1:600) was incubated at room temperature for 1 hour and detected by DAB kit after the incubation.

[5] = tested on: mice administered aggregated beta amyloid 1-42; assay: AD acute model, passive avoidance test; assay type: in vivo, mouse; conditions: oral, mice given beta amyloid, p<0.05
Description: For passive avoidance test, male ICR mouse weighing 25 g purchased from Samtaco Co. was bred with five mice per cage and the cage was kept with following condition maintaining the temperature of 22±2° C. and the relative humidity of […] under the regularly controlled light/dark condition with an interval of 12 hours.
Synthetic beta amyloid 1-42 (BACHEM) was dissolved in DMSO in order to be 250 μM solution and diluted with PBS to 10 nM and aggregated at 37° C. for four days (Passive Avoidance test) or six days (Y maze test).
Aggregated beta amyloid 1-42 was administrated into the mice according to the procedure disclosed in the literature (Lausen & Belknap, J. Pharmacol. Methods, 16 pp 355-357, 1986).
50 μl of aggregated beta amyloid 1-42 was administrated into the 2.4 mm depth of bregma region with 50 μl of Hamilton micro-syringe equipped with 26-gauge needle. The behavior tests were divided into Y maze test and PA (passive avoidance) test after the beta amyloid administration. Y maze test was performed 2 days after the administration and PA test was 3 days after the administration. Each test was done with more than 10 mice. […]
At 24 hours after the training session, the identical experiment was performed again with mouse to measure the latency time staying at the light chamber. […] Latency to enter the dark compartment from the light compartment was measured as a step through latency. […]

Compound: CC(C)C1=Cc2ccc3c(c2C(=O)C1=O)C=CCC3(C)C [1,2-Didehydromiltirone, 1,2-didehydromiltirone]
- inhibitory effect on the toxicity of beta amyloid [1]: did not inhibit

Compound: CC(C)C1=Cc2ccc3c(c2C(=O)C1=O)CCCC3(C)C [Miltirone]
- inhibitory effect on the toxicity of beta amyloid [1]: did not inhibit

Compound: Cc1cccc2c3c(ccc12)C1=C(C(=O)C3=O)[C@@H](C)CO1 [dihydrotanshinone I]
- inhibitory effect on the toxicity of beta amyloid [1]: did not show any inhibitory effect

Compound: Cc1coc2c1C(=O)C(=O)c1c-2ccc2c1CCCC2(C)C [tanshinone IIA]
- recovery of memory learning disorder (spontaneous alteration, Y maze) [2]: recovered
- toxicity at oral administration test [3]: no toxicity
- injury of cholinergic neuron caused by beta amyloid ([4]; ChAT staining): recovered the injury of cholinergic neuron
- injury of memory learning correlated with hippocampus injury (brain staining) ([4]; Cresyl violet staining, mouse brain after beta amyloid): significantly recovered
- activity of astrocyte caused by beta amyloid ([4]; GFAP staining): reduced the increased activity of astrocyte
- latency time (step through latency, passive avoidance) [5]: significantly increased
- inhibitory effect on the toxicity of beta amyloid [1]: mere inhibitory effect

Compound: Cc1coc2c1C(=O)C(=O)c1c-2ccc2c(C)cccc12 [tanshinone I]
- inhibitory effect on the toxicity of beta amyloid [1]: did not show any inhibitory effect
